Key:
Experiment in all cases: relative viability (nuclei count vs DMSO), 5 days (fraction); higher = more cells survive
Bosutinib + Dasatinib = compound: COc1cc(Nc2c(C#N)cnc3cc(OCCCN4CCN(C)CC4)c(OC)cc23)c(Cl)cc1Cl [Bosutinib] + Cc1nc(Nc2ncc(C(=O)Nc3c(C)cccc3Cl)s2)cc(N2CCN(CCO)CC2)n1 [Dasatinib] (partner 0.075 µM)
Method in brief: (§1)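 Relative viability divides the nuclei count in treated wells by that in vehicle wells. Lung cancer cell lines were seeded in 1536-well plates, dosed by pin tool the next day, and fixed and stained after 5 days in one step with final 0.05% Triton X-100, 1% formaldehyde and 1 ug/ml Hoechst. Dosing was a single drug or a fixed anchor-drug dose plus five library-drug doses (not always all listed) in √10 steps, and values are medians of duplicate plates imaged at 4×.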

Bosutinib + Tozasertib = compound: COc1cc(Nc2c(C#N)cnc3cc(OCCCN4CCN(C)CC4)c(OC)cc23)c(Cl)cc1Cl [Bosutinib] + Cc1cc(Nc2cc(N3CCN(C)CC3)nc(Sc3ccc(NC(=O)C4CC4)cc3)n2)n[nH]1 [Tozasertib] (partner 0.1 µM)
Method in brief: as §1

Bosutinib + Phenformin = compound: COc1cc(Nc2c(C#N)cnc3cc(OCCCN4CCN(C)CC4)c(OC)cc23)c(Cl)cc1Cl [Bosutinib] + N=C(N)NC(=N)NCCc1ccccc1 [Phenformin] (partner 250 µM)
Method in brief: as §1

Bosutinib + OSI-027 = compound: COc1cc(Nc2c(C#N)cnc3cc(OCCCN4CCN(C)CC4)c(OC)cc23)c(Cl)cc1Cl [Bosutinib] + COc1cccc2cc(-c3nc([C@H]4CC[C@H](C(=O)O)CC4)n4ncnc(N)c34)[nH]c12 [OSI-027] (partner 0.5 µM)
Method in brief: as §1

Bosutinib + Foretinib = compound: COc1cc(Nc2c(C#N)cnc3cc(OCCCN4CCN(C)CC4)c(OC)cc23)c(Cl)cc1Cl [Bosutinib] + COc1cc2c(Oc3ccc(NC(=O)C4(C(=O)Nc5ccc(F)cc5)CC4)cc3F)ccnc2cc1OCCCN1CCOCC1 [Foretinib] (partner 0.25 µM)
Method in brief: as §1

Bosutinib + Luminespib = compound: COc1cc(Nc2c(C#N)cnc3cc(OCCCN4CCN(C)CC4)c(OC)cc23)c(Cl)cc1Cl [Bosutinib] + CCNC(=O)c1noc(-c2cc(C(C)C)c(O)cc2O)c1-c1ccc(CN2CCOCC2)cc1 [Luminespib] (partner 0.01 µM)
Method in brief: as §1

Bosutinib = compound: COc1cc(Nc2c(C#N)cnc3cc(OCCCN4CCN(C)CC4)c(OC)cc23)c(Cl)cc1Cl [Bosutinib]
Method in brief: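 Viability is treated-well nuclei as a fraction of vehicle-well nuclei, reported as the median across plates. Before counting, lung cancer cell lines were kept overnight at 37 °C in 1536-well plates, pinned with five √10-spaced library-drug doses on vehicle-anchored plates, and left 5 days without medium change, then fixed, permeabilised and Hoechst-stained in one step, imaged at 4× and counted by MetaXpress. A plate passed only if control CV was below 25% and at least one doubling occurred.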

Bosutinib + AZD7762 = compound: COc1cc(Nc2c(C#N)cnc3cc(OCCCN4CCN(C)CC4)c(OC)cc23)c(Cl)cc1Cl [Bosutinib] + NC(=O)Nc1cc(-c2cccc(F)c2)sc1C(=O)N[C@H]1CCCNC1 [AZD7762] (partner 0.2 µM)
Method in brief: as §1

Bosutinib + Pemetrexed = compound: COc1cc(Nc2c(C#N)cnc3cc(OCCCN4CCN(C)CC4)c(OC)cc23)c(Cl)cc1Cl [Bosutinib] + Nc1nc2[nH]cc(CCc3ccc(C(=O)N[C@@H](CCC(=O)O)C(=O)O)cc3)c2c(=O)[nH]1 [Pemetrexed] (partner 0.2 µM)
Method in brief: as §1

Bosutinib + Palbociclib = compound: COc1cc(Nc2c(C#N)cnc3cc(OCCCN4CCN(C)CC4)c(OC)cc23)c(Cl)cc1Cl [Bosutinib] + CC(=O)c1c(C)c2cnc(Nc3ccc(N4CCNCC4)cn3)nc2n(C2CCCC2)c1=O [Palbociclib] (partner 0.5 µM)
Method in brief: as §1

Bosutinib + Trametinib = compound: COc1cc(Nc2c(C#N)cnc3cc(OCCCN4CCN(C)CC4)c(OC)cc23)c(Cl)cc1Cl [Bosutinib] + CC(=O)Nc1cccc(-n2c(=O)n(C3CC3)c(=O)c3c(Nc4ccc(I)cc4F)n(C)c(=O)c(C)c32)c1 [Trametinib] (partner 0.02 µM)
Method in brief: as §1

Bosutinib + Olaparib = compound: COc1cc(Nc2c(C#N)cnc3cc(OCCCN4CCN(C)CC4)c(OC)cc23)c(Cl)cc1Cl [Bosutinib] + O=C(c1cc(Cc2n[nH]c(=O)c3ccccc23)ccc1F)N1CCN(C(=O)C2CC2)CC1 [Olaparib] (partner 8 µM)
Method in brief: as §1

Bosutinib + Decitabine = compound: COc1cc(Nc2c(C#N)cnc3cc(OCCCN4CCN(C)CC4)c(OC)cc23)c(Cl)cc1Cl [Bosutinib] + Nc1ncn([C@H]2C[C@H](O)[C@@H](CO)O2)c(=O)n1 [Decitabine] (partner 2 µM)
Method in brief: as §1

Bosutinib + Vorinostat = compound: COc1cc(Nc2c(C#N)cnc3cc(OCCCN4CCN(C)CC4)c(OC)cc23)c(Cl)cc1Cl [Bosutinib] + O=C(CCCCCCC(=O)Nc1ccccc1)NO [Vorinostat] (partner 1 µM)
Method in brief: as §1

## NCI-H1623
Bosutinib + Dasatinib; first compound 0.01 µM
  relative viability: 0.38
Bosutinib + Dasatinib; first compound 0.03162 µM
  relative viability: 0.555
Bosutinib + Dasatinib; first compound 0.1 µM
  relative viability: 0.542
Bosutinib + Dasatinib; first compound 1 µM
  relative viability: 0.57
Bosutinib + Tozasertib; first compound 0.01 µM
  relative viability: 0.474
Bosutinib + Tozasertib; first compound 0.03162 µM
  relative viability: 0.425
Bosutinib + Tozasertib; first compound 0.1 µM
  relative viability: 0.428
Bosutinib + Tozasertib; first compound 1 µM
  relative viability: 0.399
Bosutinib + Phenformin; first compound 0.01 µM
  relative viability: 0.534
Bosutinib + Phenformin; first compound 0.03162 µM
  relative viability: 0.591
Bosutinib + Phenformin; first compound 0.1 µM
  relative viability: 0.51
Bosutinib + Phenformin; first compound 1 µM
  relative viability: 0.51
Bosutinib + OSI-027; first compound 0.01 µM
  relative viability: 0.432
Bosutinib + OSI-027; first compound 0.03162 µM
  relative viability: 0.418
Bosutinib + OSI-027; first compound 0.1 µM
  relative viability: 0.45
Bosutinib + OSI-027; first compound 1 µM
  relative viability: 0.416
Bosutinib + Foretinib; first compound 0.01 µM
  relative viability: 0.854
Bosutinib + Foretinib; first compound 0.03162 µM
  relative viability: 0.846
Bosutinib + Foretinib; first compound 0.1 µM
  relative viability: 0.866
Bosutinib + Foretinib; first compound 1 µM
  relative viability: 0.64
Bosutinib + Luminespib; first compound 0.01 µM
  relative viability: 0.645
Bosutinib + Luminespib; first compound 0.03162 µM
  relative viability: 0.565
Bosutinib + Luminespib; first compound 0.1 µM
  relative viability: 0.517
Bosutinib + Luminespib; first compound 1 µM
  relative viability: 0.497
Bosutinib; 0.01 µM
  relative viability: 0.891
Bosutinib; 0.03162 µM
  relative viability: 0.95
Bosutinib; 0.1 µM
  relative viability: 0.979
Bosutinib; 1 µM
  relative viability: 0.724

## NCI-H1648
Bosutinib + AZD7762; first compound 0.01 µM
  relative viability: 0.659
Bosutinib + AZD7762; first compound 0.03162 µM
  relative viability: 0.639
Bosutinib + AZD7762; first compound 0.1 µM
  relative viability: 0.838
Bosutinib + AZD7762; first compound 1 µM
  relative viability: 0.61
Bosutinib + Tozasertib; first compound 0.01 µM
  relative viability: 0.594
Bosutinib + Tozasertib; first compound 0.03162 µM
  relative viability: 0.447
Bosutinib + Tozasertib; first compound 0.1 µM
  relative viability: 0.396
Bosutinib + Tozasertib; first compound 1 µM
  relative viability: 0.462
Bosutinib + Pemetrexed; first compound 0.01 µM
  relative viability: 0.728
Bosutinib + Pemetrexed; first compound 0.03162 µM
  relative viability: 0.824
Bosutinib + Pemetrexed; first compound 0.1 µM
  relative viability: 0.744
Bosutinib + Pemetrexed; first compound 1 µM
  relative viability: 0.813
Bosutinib + OSI-027; first compound 0.01 µM
  relative viability: 0.286
Bosutinib + OSI-027; first compound 0.03162 µM
  relative viability: 0.251
Bosutinib + OSI-027; first compound 0.1 µM
  relative viability: 0.261
Bosutinib + OSI-027; first compound 1 µM
  relative viability: 0.245
Bosutinib + Palbociclib; first compound 0.01 µM
  relative viability: 0.297
Bosutinib + Palbociclib; first compound 0.03162 µM
  relative viability: 0.278
Bosutinib + Palbociclib; first compound 0.1 µM
  relative viability: 0.26
Bosutinib + Palbociclib; first compound 1 µM
  relative viability: 0.341
Bosutinib + Trametinib; first compound 0.01 µM
  relative viability: 0.548
Bosutinib + Trametinib; first compound 0.03162 µM
  relative viability: 0.501
Bosutinib + Trametinib; first compound 0.1 µM
  relative viability: 0.505
Bosutinib + Trametinib; first compound 1 µM
  relative viability: 0.421
Bosutinib + Olaparib; first compound 0.01 µM
  relative viability: 0.953
Bosutinib + Olaparib; first compound 0.03162 µM
  relative viability: 0.703
Bosutinib + Olaparib; first compound 0.1 µM
  relative viability: 1.01
Bosutinib + Olaparib; first compound 1 µM
  relative viability: 0.77
Bosutinib + Decitabine; first compound 0.01 µM
  relative viability: 0.471
Bosutinib + Decitabine; first compound 0.03162 µM
  relative viability: 0.622
Bosutinib + Decitabine; first compound 0.1 µM
  relative viability: 0.662
Bosutinib + Decitabine; first compound 1 µM
  relative viability: 0.675
Bosutinib + Vorinostat; first compound 0.01 µM
  relative viability: 0.389
Bosutinib + Vorinostat; first compound 0.03162 µM
  relative viability: 0.471
Bosutinib + Vorinostat; first compound 0.1 µM
  relative viability: 0.541
Bosutinib + Vorinostat; first compound 1 µM
  relative viability: 0.511
Bosutinib; 0.01 µM
  relative viability: 1.15
Bosutinib; 0.03162 µM
  relative viability: 0.851
Bosutinib; 0.1 µM
  relative viability: 0.997
Bosutinib; 1 µM
  relative viability: 0.931

Source: the supplement of paper PMC10307832
